Activity and viability data for 13 compounds are collected here from publication PMC12040169 (PLOS Biology, 2025).

Data set [1] deals with T1, C. trachomatis L2/434/Bu expressing GFP (CTL2-GFP).
T1 construct: L2/434/Bu GFP intracellular growth in HeLa cells
Description: microbe, parasite or virus in culture. Also on record: C. trachomatis total inclusion area by high-content imaging, normalised to DMSO. The following applies: Chlamydia trachomatis, HeLa, 28.5 h; total inclusion area; read-out: % of control remaining. In outline:
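Infected cells treated with library compounds were read for bulk GFP (chlamydial growth) and resorufin fluorescence (host viability), then fixed, Hoechst-stained and imaged. Inclusion area and number from GFP, plus nuclei counts, served as additional growth and viability proxies; MICs derived as previously described.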

Data set [2] concerns T2, CTL2-GFP (C. trachomatis L2/434/Bu, GFP-expressing).
T2 construct: L2/434/Bu, GFP-expressing
The data set is described as follows: microbe, parasite or virus in culture. Also on record: Intracellular C. trachomatis growth in HeLa cells, bulk GFP fluorescence relative to DMSO. Particulars: Chlamydia trachomatis, HeLa, 28.5 h; bulk GFP, mean of 2; read-out: % of control remaining. The protocol:
MICs were calculated as described above.

The nature of data set [3]: in vitro. Also on record: Viability of infected HeLa host cells, resazurin conversion, bulk resorufin fluorescence relative to DMSO. Particulars: human, hela cells; bulk resorufin, mean of 2.
Data set [4] in a line: in vitro. Particulars: human, hela cells, % viability.

By viability is commonly meant a read-out of living cells in per cent, often relative to untreated cells. Consider `CC(Nc1cccc2ccccc12)C(=O)N/N=C/c1ccc(O)cc1O` (stereo not shown) [CBK262681], for which, in data set [1], the activity at 1 µM worked out at 91.4%, the activity at 5 µM came to 46.9% and the activity at 10 µM was 24.5%. In data set [2], the activity at 1 µM is 103%, the activity at 5 µM was 62.9% and the activity at 10 µM stood at 42.4%. Moreover, in “in vitro [3]”, the viability at 28.5 h, 1 µM is 89.9%; the viability at 28.5 h, 5 µM turned out to be 86.9%; the viability at 28.5 h, 10 µM came to 82.2%. The viability at 28.5 h, 10 µM in the data set “in vitro [4]” was determined as 75.9%.

Turning to `C/C(Nc1ccc(S(=O)(=O)Nc2nccc(C)n2)cc1)=C1\C(=O)N(c2nc3ccccc3s2)N=C1C(F)(F)F` [CBK263002], in data set [1], the activity at 1 µM turned out to be 62.8%, the activity at 5 µM amounted to 27.5% and the activity at 10 µM came out at 22.8%. In addition, in data set [2], the activity at 1 µM was determined as 31.6%, the activity at 5 µM is 15.5% and the activity at 10 µM was 14.3%. Moreover, in the data set “in vitro [3]”, the viability at 28.5 h, 1 µM stood at 93.4%; the viability at 28.5 h, 5 µM is 89.8%; the viability at 28.5 h, 10 µM came to 88.6%. Further, the viability at 28.5 h, 10 µM in “in vitro [4]” worked out at 90.1%.

Regarding `CCc1nnc(NS(=O)(=O)c2ccc(N/C=C\C(=O)c3ccc4ccccc4c3)cc2)s1` [CBK263385], in data set [1], the activity at 1 µM was determined as 110%, the activity at 5 µM amounted to 33.1% and the activity at 10 µM is 19.1%. In data set [2], the activity at 1 µM is 109%, the activity at 5 µM stood at 23.6% and the activity at 10 µM amounted to 24%. Also, in “in vitro [3]”, the viability at 28.5 h, 1 µM turned out to be 93.6%; the viability at 28.5 h, 5 µM was 95.1%; the viability at 28.5 h, 10 µM amounted to 88.7%. For the same compound, the viability at 28.5 h, 10 µM in the data set “in vitro [4]” came to 91.4%.

For the compound `COc1c(Br)cc2c(cc(C)n2-c2ccccc2)c1OCC(O)CNC(C)C` (stereo not shown) [CBK263516], in data set [1], the activity at 1 µM was found to be 1.64%, the activity at 5 µM amounted to 0.762% and the activity at 10 µM was determined as 0.887%. Besides, in data set [2], the activity at 1 µM came to 6.43%, the activity at 5 µM turned out to be 9.2% and the activity at 10 µM is 7.41%. Besides, in “in vitro [3]”, the viability at 28.5 h, 1 µM came to 99.6%; the viability at 28.5 h, 5 µM was found to be 83%; the viability at 28.5 h, 10 µM came out at 91.3%. For the same compound, in the data set “in vitro [4]”, the viability at 28.5 h, 10 µM was determined as 93.8%.

In the case of `COc1ccc(C2CC(=O)C=C(Nc3cc(Cl)ccc3O)C2)cc1` (stereo not shown) [CBK263542], in data set [1], the activity at 1 µM is 81.9%, the activity at 5 µM was determined as 0.174% and the activity at 10 µM came out at 3.14%. Moreover, in data set [2], the activity at 1 µM was 86%, the activity at 5 µM worked out at 0% and the activity at 10 µM came out at 9.05%. In the data set “in vitro [3]”, the viability at 28.5 h, 1 µM was found to be 90.9%; the viability at 28.5 h, 5 µM is 101%; the viability at 28.5 h, 10 µM was 87.8%. For the same compound, the viability at 28.5 h, 10 µM in the data set “in vitro [4]” amounted to 105%.

In the case of `Cc1cc(C)nc(NS(=O)(=O)c2ccc(NC(=O)N3c4ccccc4Sc4ccccc43)cc2)n1` [CBK263922], in data set [1], the activity at 1 µM stood at 112%, the activity at 5 µM came to 51.2% and the activity at 10 µM turned out to be 28.5%. In addition, in data set [2], the activity at 1 µM came to 115%, the activity at 5 µM is 67.1% and the activity at 10 µM worked out at 28.2%. For the same compound, in the data set “in vitro [3]”, the viability at 28.5 h, 1 µM worked out at 92.3%; the viability at 28.5 h, 5 µM is 90.2%; the viability at 28.5 h, 10 µM was determined as 89.4%. Also, the viability at 28.5 h, 10 µM in the data set “in vitro [4]” amounted to 101%.

Consider `CCC(Sc1nnc2c(n1)[nH]c1ccccc12)C(=O)N1c2ccccc2Sc2ccccc21` (stereo not shown) [CBK263929], for which, in data set [1], the activity at 1 µM came to 32.8%, the activity at 5 µM stood at 30.8% and the activity at 10 µM was found to be 13.4%. In data set [2], the activity at 1 µM amounted to 60.4%, the activity at 5 µM came to 52.9% and the activity at 10 µM was 44.5%. In “in vitro [3]”, the viability at 28.5 h, 1 µM came to 94.1%; the viability at 28.5 h, 5 µM came to 89.8%; the viability at 28.5 h, 10 µM turned out to be 88.6%. Further, the viability at 28.5 h, 10 µM in the data set “in vitro [4]” was 95.1%.

On to `COc1cccc(C(=O)/C=C\Nc2ccc(S(=O)(=O)Nc3onc(C)c3C)cc2)c1` [CBK264206], for which, in data set [1], the activity at 1 µM amounted to 68.5%, the activity at 5 µM is 28.9% and the activity at 10 µM was found to be 19%. In data set [2], the activity at 1 µM was 83.7%, the activity at 5 µM turned out to be 25.4% and the activity at 10 µM came out at 8.04%. For the same compound, in the data set “in vitro [3]”, the viability at 28.5 h, 1 µM stood at 106%; the viability at 28.5 h, 5 µM worked out at 104%; the viability at 28.5 h, 10 µM worked out at 114%. The viability at 28.5 h, 10 µM in the data set “in vitro [4]” was 93.4%.

Turning to `Cc1noc(NS(=O)(=O)c2ccc(N/C=C\C(=O)c3cccnc3)cc2)c1C` [CBK264285], in data set [1], the activity at 1 µM came out at 69.7%, the activity at 5 µM amounted to 26.3% and the activity at 10 µM was 17.9%. Also, in data set [2], the activity at 1 µM amounted to 72.6%, the activity at 5 µM amounted to 13.6% and the activity at 10 µM was 11.8%. Besides, in “in vitro [3]”, the viability at 28.5 h, 1 µM came out at 106%; the viability at 28.5 h, 5 µM was 103%; the viability at 28.5 h, 10 µM stood at 104%. Moreover, in “in vitro [4]”, the viability at 28.5 h, 10 µM amounted to 102%.

For the compound `O=C1C(NCCO)=C(Nc2cccc(Cl)c2)C(=O)c2ccccc21` [CBK264323], in data set [1], the activity at 1 µM stood at 90.7%, the activity at 5 µM was determined as 34.6% and the activity at 10 µM was found to be 14.8%. In addition, in data set [2], the activity at 1 µM is 93%, the activity at 5 µM worked out at 48.6% and the activity at 10 µM was 35.5%. In “in vitro [3]”, the viability at 28.5 h, 1 µM came out at 102%; the viability at 28.5 h, 5 µM was found to be 98.6%; the viability at 28.5 h, 10 µM worked out at 88.4%. Also, the viability at 28.5 h, 10 µM in the data set “in vitro [4]” came out at 91.7%.

On to `Cc1ccc(S(=O)(=O)Nc2cc(SCC(=O)O)c(O)c3ccccc23)cc1` [CBK265708], for which, in data set [1], the activity at 1 µM is 75.1%, the activity at 5 µM amounted to 34.7% and the activity at 10 µM amounted to 13.4%. In data set [2], the activity at 1 µM stood at 92.1%, the activity at 5 µM is 51.3% and the activity at 10 µM amounted to 33%. For the same compound, in the data set “in vitro [3]”, the viability at 28.5 h, 1 µM was 103%; the viability at 28.5 h, 5 µM is 99.6%; the viability at 28.5 h, 10 µM was determined as 97.8%. Besides, in “in vitro [4]”, the viability at 28.5 h, 10 µM was 87.1%.

With `CCN(CC)CCNc1nc(-c2cccc(Cl)c2)nc2ccccc12` [CBK267265C], in data set [1], the activity at 1 µM was 85%, the activity at 5 µM was 45.3% and the activity at 10 µM worked out at 26.4%. For the same compound, in data set [2], the activity at 1 µM was 108%, the activity at 5 µM stood at 98.1% and the activity at 10 µM was determined as 55.5%. For the same compound, in the data set “in vitro [3]”, the viability at 28.5 h, 1 µM stood at 104%; the viability at 28.5 h, 5 µM was found to be 104%; the viability at 28.5 h, 10 µM came out at 108%. For the same compound, the viability at 28.5 h, 10 µM in the data set “in vitro [4]” was 90.7%.

Take `Cc1cc(C(=O)Nc2cccc(S(=O)(=O)N3CCOCC3)c2)sc1-c1ccccc1` [CBK268185]: in data set [1], the activity at 1 µM amounted to 107%, the activity at 5 µM is 82.1% and the activity at 10 µM was 51.4%. Besides, in data set [2], the activity at 1 µM is 102%, the activity at 5 µM turned out to be 88.9% and the activity at 10 µM stood at 77.7%. In “in vitro [3]”, the viability at 28.5 h, 1 µM turned out to be 106%; the viability at 28.5 h, 5 µM was 96.9%; the viability at 28.5 h, 10 µM was 98.5%. Moreover, the viability at 28.5 h, 10 µM in the data set “in vitro [4]” is 102%.
